Experimental data reported in EPA's CvTdb concentration-time database.

Experiments:
Mouse [1] = experiment: concentration in plasma after dosing; conditions: 10 min; dosed: 2-Hydroxy-4-methoxybenzophenone; 500 mg/kg; oral; Female; B6C3F1
Mouse [2] = experiment: concentration in plasma after dosing; conditions: 2 h; dosed: 2-Hydroxy-4-methoxybenzophenone; 50 mg/kg; iv; Male; B6C3F1
Rat [3] = experiment: concentration in plasma after dosing; conditions: dosed: 2-Hydroxy-4-methoxybenzophenone, 8 mg/kg, iv, Male, F344
Mouse [4] = experiment: concentration in plasma after dosing; conditions: 10 min; dosed: 2-Hydroxy-4-methoxybenzophenone; 500 mg/kg; oral; Male; B6C3F1
Rat [5] = experiment: concentration in plasma after dosing; conditions: dosed: 2-Hydroxy-4-methoxybenzophenone, 100 mg/kg, oral, Female, F344
Rat [6] = experiment: concentration in plasma after dosing; conditions: 0.25 h; dosed: 2-Hydroxy-4-methoxybenzophenone; 500 mg/kg; oral; Female; F344
Rat [7] = experiment: concentration in plasma after dosing; conditions: dosed: 2-Hydroxy-4-methoxybenzophenone, 250 mg/kg, oral, Female, F344
Rat [8] = experiment: concentration in plasma after dosing; conditions: dosed: Nitrite, 20 mg/kg, iv, Male, F344
Rat [9] = experiment: concentration in plasma after dosing; conditions: dosed: Nitrite, 80 mg/kg, oral, Female, F344
Rat [10] = experiment: concentration in plasma after dosing; conditions: 2 min; dosed: Nitrite; 20 mg/kg; iv; Male; F344
Rat [11] = experiment: concentration in plasma after dosing; conditions: 10 min; dosed: Nitrite; 40 mg/kg; oral; Female; F344
Rat [12] = experiment: concentration in kidney after dosing; conditions: 24 h; dosed: Perfluorooctanoic acid; 12 mg/kg; oral; Male; Harlan Sprague Dawley
Rat [13] = experiment: concentration in brain after dosing; conditions: 12 h; dosed: Perfluorooctanoic acid; 12 mg/kg; oral; Male; Harlan Sprague Dawley
Rat [14] = experiment: concentration in plasma after dosing; conditions: dosed: 678-39-7, 12 mg/kg, iv, Male, F344
Rat [15] = experiment: concentration in kidney after dosing; conditions: 192 h; dosed: Perfluorooctanoic acid; 12 mg/kg; oral; Male; Harlan Sprague Dawley
Rat [16] = experiment: concentration in kidney after dosing; conditions: 3 h; dosed: Fluorotelomer alcohol 8+2; 24 mg/kg; oral; Male; Harlan Sprague Dawley
Rat [17] = experiment: concentration in plasma after dosing; conditions: dosed: Fluorotelomer alcohol 8+2, 12 mg/kg, oral, Male, Harlan Sprague Dawley
Rat [18] = experiment: concentration in brain after dosing; conditions: 12 h; dosed: Perfluorooctanoic acid; 12 mg/kg; oral; Male; Harlan Sprague Dawley; remark: listed apart in the source
Rat [19] = experiment: concentration in kidney after dosing; conditions: 3 h; dosed: Fluorotelomer alcohol 8+2; 80 mg/kg; oral; Female; Harlan Sprague Dawley
Rat [20] = experiment: concentration in plasma after dosing; conditions: 5 min; dosed: 678-39-7; 12 mg/kg; iv; Male; F344
Rat [21] = experiment: concentration in plasma after dosing; conditions: dosed: 678-39-7, 40 mg/kg, iv, Female, Harlan Sprague-Dawley
Rat [22] = experiment: concentration in liver after dosing; conditions: 1200 h; dosed: Perfluorooctanoic acid; 12 mg/kg; oral; Male; Harlan Sprague Dawley
Rat [23] = experiment: concentration in brain after dosing; conditions: 3 h; dosed: Perfluorooctanoic acid; 12 mg/kg; oral; Male; Harlan Sprague Dawley
Rat [24] = experiment: concentration in liver after dosing; conditions: 12 h; dosed: Perfluorooctanoic acid; 80 mg/kg; oral; Female; Harlan Sprague Dawley
Rat [25] = experiment: concentration in kidney after dosing; conditions: 3 h; dosed: Fluorotelomer alcohol 8+2; 80 mg/kg; oral; Female; Harlan Sprague Dawley; remark: listed apart in the source
Rat [26] = experiment: concentration in liver after dosing; conditions: 1 h; dosed: Potassium Perfluorobutane Sulfonate; 20 mg/kg; oral; Female; Harlan Sprague Dawley
Rat [27] = experiment: concentration in plasma after dosing; conditions: dosed: Potassium Perfluorobutane Sulfonate, 4 mg/kg, iv, Male, F344
Rat [28] = experiment: concentration in plasma after dosing; conditions: 1.5 h; dosed: Potassium Perfluorobutane Sulfonate; 4 mg/kg; iv; Male; F344
Rat [29] = experiment: concentration in plasma after dosing; conditions: 0.75 h; dosed: Potassium Perfluorobutane Sulfonate; 4 mg/kg; iv; Female; Harlan Sprague-Dawley
Rat [30] = experiment: concentration in liver after dosing; conditions: 12 h; dosed: Potassium Perfluorobutane Sulfonate; 20 mg/kg; oral; Male; Harlan Sprague Dawley
Rat [31] = experiment: concentration in plasma after dosing; conditions: 1.5 h; dosed: Potassium Perfluorobutane Sulfonate; 4 mg/kg; iv; Male; F344; remark: listed apart in the source
Rat [32] = experiment: concentration in plasma after dosing; conditions: 0.25 h; dosed: Potassium Perfluorobutane Sulfonate; 4 mg/kg; iv; Male; F344
Rat [33] = experiment: concentration in liver after dosing; conditions: 3 h; dosed: Potassium Perfluorobutane Sulfonate; 20 mg/kg; oral; Female; Harlan Sprague Dawley
rat [34] = conditions: dosed: benzo[a]pyrene, 1 mg/kg, iv, male, Sprague Dawley
rat [35] = experiment: amount in expired air after dosing (umol); conditions: dosed: methanol, 100 mg/kg, iv, male, CDF(F344)/CrlBR

COc1ccc(C(=O)c2ccccc2)c(O)c1 [2-Hydroxy-4-methoxybenzophenone]
Conditions | concentration in plasma [ng/mL]
Mouse [1] | 535
Mouse [2] | 236
Mouse [4] | 93.1
Rat [6] | 1730

concentration in plasma [ng/mL]
Conditions | 0.25 h | 4 h | 10 h | 10 min
Rat [3] | – | – | 6.58 | 3950
Rat [5] | 100 | 16.3 | – | –
Rat [7] | 56.9 | 26.2 | – | –

O=N[O-] [Nitrite]
concentration in plasma [ng/mL]
Conditions | 0.75 h | 1 h | 2 h | 2 min
Rat [8] | 3400 | – | – | 14300
Rat [9] | – | 19000 | 8500 | –

Conditions | concentration in plasma [ng/mL]
Rat [10] | 15100
Rat [11] | 26600

O=C(O)C(F)(F)C(F)(F)C(F)(F)C(F)(F)C(F)(F)C(F)(F)C(F)(F)F [Perfluorooctanoic acid]
Conditions | concentration in brain [ng/g] | concentration in kidney [ng/g] | concentration in liver [ng/g] | concentration in plasma [ng/mL]
Rat [12] | – | 29700 | – | –
Rat [13] | 1230 | – | – | –
Rat [15] | – | 14100 | – | –
Rat [16] | – | 317 | – | –
Rat [18] | 1260 | – | – | –
Rat [19] | – | 2070 | – | –
Rat [20] | – | – | – | 35.2
Rat [22] | – | – | 4980 | –
Rat [23] | 913 | – | – | –
Rat [24] | – | – | 59900 | –
Rat [25] | – | 2010 | – | –

Conditions | concentration in plasma [ng/mL]
Rat [14], 0.75 h | 332
Rat [14], 12 h | 524
Rat [17], 0.5 h | 108
Rat [17], 9 h | 851
Rat [21], 1 h | 2620
Rat [21], 24 h | 86.7

O=S(=O)([O-])C(F)(F)C(F)(F)C(F)(F)C(F)(F)F.[K+] [Potassium Perfluorobutane Sulfonate]
Conditions | concentration in liver [ng/g] | concentration in plasma [ng/mL]
Rat [26] | 30300 | –
Rat [28] | – | 2130
Rat [29] | – | 6450
Rat [30] | 9420 | –
Rat [31] | – | 1850
Rat [32] | – | 16400
Rat [33] | 8410 | –

Rat [27]
Conditions | concentration in plasma [ng/mL]
0.5 h | 22200
12 h | 938

c1ccc2c(c1)cc1ccc3cccc4ccc2c1c34 [benzo[a]pyrene]
rat [34]
Conditions | amount in bile after dosing [ng]
1.003 h | 7.16
3.009 h | 20.1
5.994 h | 22.9
24 h | 26.4

CO [methanol]
rat [35]
Conditions | amount in expired air
0.5482 h | 3.95
1.003 h | 4.75
1.458 h | 5.56
1.963 h | 7.78
2.999 h | 10.5
4.439 h | 14.9
5.98 h | 17.6
8.026 h | 18.8
10.01 h | 19.4
12.02 h | 20.1
15.07 h | 19.5
